Experiment [1] deals with TPA induced ear edema in mouse. The experiment in a line: TPA induced mouse ear edema assay. It counts as in vivo, mouse (male ICR). The conditions noted are these: 0.1 mg applied to right ear immediately after TPA; 6 hour. The gist of the method: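 Male ICR mice (5 weeks, n = 7–8) received 2 μg TPA in acetone on the right ear, then 0.1 mg compound in THF–methanol (1:1) topically straight after. At 6 h, ear punches were weighed and % inhibition of edema was calculated.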

Experiment [2] has as its system antigen-induced bronchoconstriction in guinea-pig. Nature of the experiment: Inhibitory effect on antigen-induced bronchospasm (anti-asthmatic action). To be noted: Cavia porcellus; intravenous, 10 minutes before 0.2 mg/kg OA challenge; read-out: Action suppressing antigen induced bronchoconstriction ED50. It counts as in vivo, guinea-pig (Hartley male). The method, then: Hartley male guinea-pig was sensitized by intramuscular administration of 35 mg Ovalbumin (OA) at first day and fourth day. After 25 to 29 days of first sensitization, trachial canula was introduced in the guinea pig anesthetized with pentobarbital and artificial ventilation was performed. The overflow of the ventilation was measured by the Konzett Roessler method while 0.2 mg/kg OA were administered intravenously. The test compound was dissolved in polyethylene glycol 400 and intravenously administered 10 minutes before OA challenge.

In experiment [3] the test system is rat neutrophils. Nature of the experiment: Inhibition of superoxide anion release from rat neutrophils (chemiluminescence). It counts as cell-based. To be noted: Neutrophil, stimulated with 0.3 micro M A23187, read-out: Action suppressing release of superoxide anions from rat neutrophils IC50. As to the method: The release of super oxide anions was measured so as to study the inhibitory effects of the compound of the present invention on inflammatory leukocytes, that is, neutrophils.
Blood sample was collected from Wister rats anestetized with ether. It was superposed on a blood cell separation solution (Polymorphoprep 1.113, Naicomed Farm) and the neutrophils were separated by centrifugation. The neutrophils were resuspended in a Hank's balanced salt solution at a concentration of 0.5×10^4 cells/ml. 0.1 mM of lusigenin and the test substance dissolved in DMSO were added to 2 ml of the cell suspension. The chemiluminescence generated by stimulation of 0.3 maicro M calcium ionophore A23187 was measured by a chemiluminescence reader so as to evaluate the release of super oxide anions.

For experiment [4], the system named is Type IV PDE. Nature of the experiment: PDE IV inhibitory activity (isozyme partially purified from rat neutrophils, 3H-cAMP substrate). Type of experiment: biochemical. The conditions noted are these: rat neutrophil PDE IV, 30° C., 30 minutes, read-out: PDE IV inhibiting action IC50. An outline of the steps: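 Rat neutrophil PDE IV partially purified by ion-exchange chromatography; incubated with compound in 50 mM Tris-HCl, 5 mM MgCl2 and 3H-cAMP substrate, 30 °C for 30 min, stopped by boiling. Product converted to 3H-adenosine by 5'-nucleotidase, separated by ion exchange, counted by scintillation; IC50 in M.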

For experiment [5], the system named is DNFB contact-type dermatitis in mouse. The experiment in a line: Allergic contact dermatitis assay (DNFB). The conditions noted are these: applied 1 hour before and 5 hours after inducing ear edema; 24 hours. Type of experiment: in vivo, mouse (ICR male). As to the method: 8 to 9 week old ICR type male mice were divided into groups of 8 to 9 each for use. The shaved skin of the ventral surface of each of the mice was applied with a 0.5% DNFB (2,4-dinitrofluorobenzene)acetone-olive oil solution (v/v=4/1) in an amount of 25 μl/day over 2 days to sensitize it. Four days after the second day of sensitization, a 0.2% DNFB acetone-olive oil solution was applied to the ear in an amount of 25 μl to induce contact-type dermatitis. After 24 hours, the thickness of the ear was measured using a dial thickness gauge and the difference with the value before inducing the edema was found. The test compound was dissolved in 25 μl of tetrahydrofuran-methanol (mixture ratio 1:1) and applied two time, that is, 1 hour before inducing the ear edema and 5 hours after it.
In Table 6, the effect of the compound was expressed by the ED50.

In experiment [6] the test system is type IV PDE. The conditions noted are these: background art (Kokai No. 50-157360); cited from earlier work.

As a reminder, the ED50 is the dose that gives a 50% effect, or the effect in half of the subjects. The term IC50 denotes the concentration needed to halve the response being measured. As for `COc1ccc(NC2=CC(=O)CC2)cc1O[C@@H]1C[C@H]2CC[C@@H]1C2` (racemic) [Compound No. 8, 3-[3-[(1RS,2RS,4SR)-bicyclo[2.2. 1]hept-2-yloxy]-4-methoxyanilino]-2-cyclopenten-1-one], the “% Inhibition of ear edema” value in experiment [1] is recorded as 73.1%. Moreover, in experiment [2], the ED50 worked out at 3 mg/kg. Besides, the values for the IC50 in experiment [3] and in experiment [4] were 140 nM and 1300 nM, respectively.

With `COc1ccc(NC2=CC(=O)NCC2)cc1O[C@H]1C[C@@H]2CC[C@H]1C2` (relative stereo) [Compound No. 23], in experiment [1], the “% Inhibition of ear edema” value was 73.0%. The values for the IC50 in experiment [3] and in experiment [4] were 190 nM and 2400 nM, respectively.

Take `COc1ccc(NC2=CC(=O)CC2)cc1OC1CCCC1` [Compound No. 1, 3-(3-cyclopentyloxy-4-methoxyanilino)-2-cyclopenten-1-one]: the “% Inhibition of ear edema” value in experiment [1] came out at 68.2%. Further, the median effective dose (ED50) in experiment [2] came to 1.4 mg/kg. The values for the IC50 in experiment [3] and in experiment [4] were 120 nM and 1600 nM, respectively.

As to `COc1ccc(NC2=CC(=O)CC2)cc1OC1Cc2ccccc2C1` [Compound No. 9, 3-[3-(2-indanyloxy)-4-methoxyanilino]-2-cyclopenten-1-one], the “ED50 (allergic contact dermatitis, ear edema)” value in experiment [5] is 94 μg/site. Also, the “% Inhibition of ear edema” value in experiment [1] is reported as 72.3%. In addition, the median effective dose (ED50) in experiment [2] worked out at 5.5 mg/kg. In addition, the IC50 in experiment [4] stood at 690 nM.

As to `COc1ccc(NC2=C(C)C(=O)CC2)cc1OC1CCCCC1` [Compound No. 14, 3-(3-cyclohexyloxy-4-methoxyanilino)-2-methyl-2-cyclopenten-1-one], the “ED50 (allergic contact dermatitis, ear edema)” value in experiment [5] was determined as 16 μg/site. Also, the “% Inhibition of ear edema” value in experiment [1] is 73.4%. Also, in experiment [4], the IC50 amounted to 2400 nM.

Consider `COc1ccc(NC2=CC(=O)NCC2)cc1OC1CCCC1` [Compound No. 21, 4-(3-cyclopentyloxy-4-methoxyanilino)-1,2,5,6-tetrahydropyridin-2-one], for which, in experiment [2], the ED50 was 1 mg/kg. Also, the IC50 in experiment [3] was 410 nM; in experiment [4], 1100 nM.

Consider `COc1ccc(NC2=CC(=O)N(Cc3ccccc3)CC2)cc1OC1CCCC1` [Compound No. 22, 1-benzyl-4-(3-cyclopentyloxy-4-methoxyanilino)-1,2,5,6-tetrahydropyridin-2-one], for which the “ED50 (allergic contact dermatitis, ear edema)” value in experiment [5] came out at 32 μg/site. Further, the “% Inhibition of ear edema” value in experiment [1] is reported as 76.8%. The IC50 in experiment [3] amounted to 3300 nM; in experiment [4], 24000 nM.

Take `COc1ccc(C2CNC(=O)C2)cc1OC1CCCC1` (centres unmarked) [Rolipram]: the “specific inhibitory activity against type IV PDE (in words)” value in experiment [6] is “specific inhibitory activity against type IV PDE”.

The values above are taken from patent publication US6235736A, “3-anilino-2-cycloalkenone derivatives” (Nikken Chemicals Co., Ltd., priority 1997, dated 2001).
